Reference: PMC6112376, “Comprehensive Analyses and Prioritization of Tox21 10K Chemicals Affecting Mitochondrial Function by in-Depth Mechanistic Studies” (Environmental Health Perspectives, 2018)
Read-outs that look alike come from different tables or passages of the source.

Columns and labels:
[1] = system: HepG2 cells; settings: for IC50: read-out: MMP assays IC50 (µM) HepG2
[2] = system: HepG2 cells; settings: cited from earlier work
[3] = system: rat primary hepatocytes; assay: MMP assay in rat primary hepatocytes; settings: for IC50: read-out: MMP assays IC50 (µM) Rat Hepatocytes
[4] = HepG2 cells, single number from one experiment
[5] = read-out: MMP assays IC50 (µM) qHTS-HepG2
[6] = rat hepatocytes, mean ± SD of three experiments
[7] = read-out: MMP assays IC50 (µM), qHTS-HepG2

| Compound | MMP assays efficacy (%) HepG2 [1, 4] | IC50 [1, 4] | MMP assays efficacy (%) qHTS-HepG2 [2] | IC50 [2, 5] | MMP assays efficacy (%) Rat Hepatocytes [3, 6] | IC50 [3, 6] | IC50 [2, 7] | MMP assays IC50 (µM) Rat Hepatocytes [3, 6] | MMP assays IC50 (µM) HepG2 [1, 4] | MMP assays IC50 (µM) qHTS-HepG2 [2] | MMP assays efficacy (%) HepG2 [1] | IC50 [1] | MMP assays IC50 (µM) Rat Hepatocytes [3] | MMP assays IC50 (µM) HepG2 [1] | IC50 ([3]; Rattus norvegicus, Hepatocyte) |
| --- | --- | --- | --- | --- | --- | --- | --- | --- | --- | --- | --- | --- | --- | --- | --- |
| CCC(=O)OCC(=O)[C@@]1(OC(=O)CC)[C@@H](C)C[C@H]2[C@@H]3CCC4=CC(=O)C=C[C@]4(C)[C@@]3(Cl)[C@@H](O)C[C@@]21C [Beclazone] | -61% | 21.8 µM | -103±9% | 23.7 ± 2.74 µM | -89±79% | 16.3 ± 20.6 µM | – | – | – | – | – | – | – | – | – |
| CCCCCCCCCOC(=O)c1ccc(O)cc1 [Nonylparaben] | -110% | 7.94 µM | -101±6% | – | inactive | – | 4.43 ± 0.3 µM | inactive | – | – | – | – | – | – | – |
| CC/C=C\C/C=C\C/C=C\CCCCCCCC(=O)OCC [Ethyl linolenate] | inactive | – | -51±21% | 49.6 ± 36 µM | inactive | – | – | inactive | inactive | – | – | – | – | – | – |
| CC(=O)OCC(=O)[C@@]1(OC(C)=O)[C@@H](C)C[C@H]2[C@@H]3C[C@H](F)C4=CC(=O)C=C[C@]4(C)[C@@]3(F)[C@@H](O)C[C@@]21C [Diflorasone diacetate] | inactive | – | -50±7% | 28.7 ± 1.87 µM | inactive | – | – | inactive | inactive | – | – | – | – | – | – |
| O=C1c2c(O)ccc(Nc3ccc(CCO)cc3)c2C(=O)c2c([N+](=O)[O-])ccc(O)c21 [C.I. Disperse blue 27] | -119% | 25.1 µM | -86±8% | 2.34 ± 0.87 µM | -72±24% | 32.5 ± 10.4 µM | – | – | – | – | – | – | – | – | – |
| C=C1CC[C@H](O)C/C1=C/C=C1\CCC[C@]2(C)[C@@H]([C@H](C)CC[C@@H](O)C(C)(C)O)CC[C@@H]12 [24R,25-Dihydroxyvitamin D3] | -133% | 15.5 µM | -111±10% | 13 ± 2.17 µM | -46±4% | 17.3 µM | – | – | – | – | – | – | – | – | – |
| CC(C)(C)c1cc(Cc2cc(C(C)(C)C)c(O)c(C(C)(C)C)c2)cc(C(C)(C)C)c1O [4,4'-Methylenebis(2,6-di-t-butylphenol)] | inactive | – | inactive | – | inactive | – | – | inactive | inactive | inactive | – | – | – | – | – |
| C(=Cc1ccncc1)c1ccccc1 [Compound 4-Styrylpyridine] | inactive | – | -65±10% | 11.2 ± 5.54 µM | inactive | – | – | inactive | inactive | – | – | – | – | – | – |
| Bis(tributyltin)oxide | – | – | -112±4% | 0.09 ± 0.02 µM | – | – | – | – | – | – | -98% | 0.31 µM | inactive | – | – |
| CCCCCCCCCCCCOC(=O)c1ccc(O)cc1 [Dodecylparaben] | -106% | 7.94 µM | -107±9% | 4.19 ± 1.07 µM | inactive | – | – | inactive | – | – | – | – | – | – | – |
| COc1cc(Cl)ccc1Cl [2,5-Dichloroanisole] | inactive | – | inactive | – | inactive | – | – | inactive | inactive | inactive | – | – | – | – | – |
| Nc1cc(Cl)c([N+](=O)[O-])cc1O [Compound 2-Amino-4-chloro-5-nitrophenol] | -107% | 25.1 µM | -104±19% | 21.5 ± 2.48 µM | -47±13% | 31.3 ± 8.72 µM | – | – | – | – | – | – | – | – | – |
| CC(C)(C)OC(=O)c1ccc(O)cc1 [tert-Butyl 4-hydroxybenzoate] | -105% | 35.5 µM | -99±24% | – | -80±10% | 50.8 ± 9.48 µM | 25.3 ± 7.32 µM | – | – | – | – | – | – | – | – |
| c1ccc2c(c1)OCC(C1=NCCN1)O2 (stereo not drawn) [Idazoxan] | inactive | – | -60±9% | – | inactive | – | 20.6 ± 7.46 µM | inactive | inactive | – | – | – | – | – | – |
| CC(=O)O[C@@]12CO[C@@H]1C[C@H](O)[C@@]1(C)C(=O)[C@H](O)C3=C(C)[C@@H](OC(=O)[C@H](O)[C@@H](NC(=O)OC(C)(C)C)c4ccccc4)C[C@@](O)([C@@H](OC(=O)c4ccccc4)[C@H]21)C3(C)C [Docetaxel] | – | – | -57±17% | 15 ± 29.8 µM | – | – | – | – | – | – | inactive | – | – | inactive | 12.1 ± 4.78 µM |
| CCc1cc(SCc2sc(-c3ccc(C(F)(F)F)cc3)nc2CN2CCN(c3ccc(OC)cc3)CC2)ccc1OCC(=O)O | -105% | 31.6 µM | -128±5% | 25.3 ± 5.81 µM | -116±28% | 23.1 ± 15.6 µM | – | – | – | – | – | – | – | – | – |
| C[C@H]1C[C@H]2[C@@H]3CCC4=CC(=O)C=C[C@]4(C)[C@@]3(F)[C@@H](O)C[C@]2(C)[C@@]1(O)C(=O)CCl [Clobetasol] | -87% | 17.3 µM | -91±13% | 14.4 ± 3.67 µM | -64±43% | 19.8 ± 15.6 µM | – | – | – | – | – | – | – | – | – |
| CCCCCCCCCCCC[n+]1ccc2ccccc2c1.Cc1ccc(S(=O)(=O)[O-])cc1 [2-Dodecylisoquinolinium tosylate] | -110% | 4.35 µM | -83±5% | 3.53 ± 0.5 µM | -95±7% | 4.94 ± 2.78 µM | – | – | – | – | – | – | – | – | – |
| Cc1nc2ccccc2s1 [Compound 2-Methylbenzothiazole] | inactive | – | inactive | – | inactive | – | – | inactive | inactive | inactive | – | – | – | – | – |
| CC[C@H](NC(=O)c1cc(F)ccc1[N-]S(=O)(=O)c1cccc2cccnc12)c1ccccc1.[Na+] | -98% | 11.2 µM | -101±14% | – | -84±50% | 35.9 ± 20.2 µM | 4.42 ± 6.97 µM | – | – | – | – | – | – | – | – |
| CCCCCCCC[n+]1ccn(C)c1.F[B-](F)(F)F [1-Methyl-3-octylimidazolium tetrafluoroborate] | -115% | 19.9 µM | -73±29% | 5.66 ± 5.82 µM | -76±29% | 43.4 ± 7.4 µM | – | – | – | – | – | – | – | – | – |
| COc1ccc(C(=O)c2ccccc2)c(O)c1 [Compound 2-Hydroxy-4-methoxybenzophenone] | inactive | – | inactive | – | – | – | – | – | inactive | inactive | – | – | – | – | 50.1 ± 18.9 µM |
